Paper PMC8667930, “Novel sulphonamide-bearing methoxyquinazolinone derivatives as anticancer and apoptosis inducers: synthesis, biological evaluation and in silico studies” (Journal of Enzyme Inhibition and Medicinal Chemistry, 2021)

Experiments:
[1] = system: A549 cells (non-small cell lung carcinoma); assay: MTT cytotoxicity assay, A549; format: cell-based; details: mean ± SD (n = 3), NA = no activity; for IC50, A549: 48 h treatment; for IC50: Homo sapiens, A549, 48 h treatment
Method: (§1) The MTT assay was performed to test the antiproliferative activity of the synthesised compounds, as per the methodology described by Alqahtani and co-workers[35]. Briefly, A549, HepG2, LoVo, MCF-7 and HUVEC cell lines were seeded in 96-cell culture plates (5 × 10^4 per well) and allowed 24 h for adherence. The cells were then treated with different concentrations of each compound, and 5-fluorouracil was used as a positive control. Following the treatment period (48 h), 10 µL of MTT solution (5 mg/mL) was added to each well and the plates were incubated at 37 °C for 2–4 h. Isopropanol (100 µL) acidified with 0.1 N HCl was added to solubilise the formazan products and the plate was kept on a shaker for 10 min. The optical density of each mixture was measured at 570 nm using an enzyme-linked immunosorbent assay plate reader (ELISA plate reader, Bio-Tek, USA). The concentrations of tested compounds required to inhibit cell growth by 50% (IC50) were calculated using a dose-response curve. Cell survival was calculated using the following equation: Cell survival (%)=(OD of treated sample)/(OD of untreated sample)×100

[2] = system: MCF-7 cells (human breast cancer cell line); assay: MTT cytotoxicity assay, MCF-7; format: cell-based; details: mean ± SD (n = 3), NA = no activity; for IC50, MCF-7: 48 h treatment; for IC50: Homo sapiens, MCF7, 48 h treatment
Method: as §1

[3] = system: HUVEC (normal human umbilical vein endothelial cells); assay: MTT cytotoxicity assay, HUVEC; format: cell-based; details: 48 h treatment, mean ± SD (n = 3), NA = no activity; for IC50: Homo sapiens, HUVEC
Method: as §1

[4] = system: HepG2 cells (liver cancer); assay: MTT cytotoxicity assay, HepG2; format: cell-based; details: mean ± SD (n = 3), NA = no activity; for IC50, HepG2: 48 h treatment; for IC50: Homo sapiens, HepG2, 48 h treatment
Method: as §1

[5] = system: LoVo cells (colon cancer); assay: MTT cytotoxicity assay, LoVo; format: cell-based; details: 48 h treatment, mean ± SD (n = 3), NA = no activity; for IC50: Homo sapiens, LoVo
Method: as §1

| SMILES | IC50, A549 [1] | IC50, MCF-7 [2] | IC50, HUVEC [3] | IC50, HepG2 [4] | melting point [°C] | IC50, LoVo [5] | IC50 [1] [µM] | IC50 [2] [µM] | IC50 [3] [µM] | IC50 [4] [µM] | IC50 [5] [µM] |
| --- | --- | --- | --- | --- | --- | --- | --- | --- | --- | --- | --- |
| COc1cccc2c(=O)n(-c3ccc(S(N)(=O)=O)cc3)c(SCC(=O)Nc3ccccc3)nc12 [Compound 5, 2-((8-Methoxy-4-oxo-3–(4-sulphamoylphenyl)-3,4-dihydroquinazolin-2-yl)thio)-N-phenyl-acetamide] | no activity | no activity | no activity | no activity | > 350 | no activity |  |  |  |  |  |
| COc1cccc2c(=O)n(-c3ccc(S(N)(=O)=O)cc3)c(SCC(=O)Nc3ccc([N+](=O)[O-])cc3C)nc12 [Compound 16, 2-((8-Methoxy-4-oxo-3-(4-sulphamoylphenyl)-3,4-dihydroquinazolin-2-yl)thio)-N-(2-methyl-4-nitrophenyl) acetamide] |  |  |  |  | > 350 |  | 67.4 ± 1.45 | 39.9 ± 0.57 | 80.8 ± 1.13 | 75.7 ± 1.85 | 40.98 ± 0.12 |
| COc1cccc2c(=O)n(-c3ccc(S(N)(=O)=O)cc3)c(SCC(=O)Nc3c(C)cccc3[N+](=O)[O-])nc12 [Compound 17, 2-((8-Methoxy-4-oxo-3-(4-sulphamoylphenyl)-3,4-dihydroquinazolin-2-yl)thio)-N-(2-methyl-6-nitrophenyl) acetamide] | no activity | no activity | no activity | no activity | > 350 | no activity |  |  |  |  |  |
| COc1ccc(NC(=O)CSc2nc3c(OC)cccc3c(=O)n2-c2ccc(S(N)(=O)=O)cc2)cc1 [Compound 12, 2-((8-Methoxy-4-oxo-3-(4-sulphamoylphenyl)-3,4-dihydroquinazolin-2-yl)thio)-N-(p-methoxyphenyl) acetamide] | no activity | no activity | no activity | no activity | 296 to 298 | no activity |  |  |  |  |  |
| COc1cccc2c(=O)n(-c3ccc(S(N)(=O)=O)cc3)c(SCC(=O)Nc3ccc(C)cc3)nc12 [Compound 8, 2-((8-Methoxy-4-oxo-3-(4-sulphamoylphenyl)-3,4-dihydroquinazolin-2-yl)thio)-N-(p-tolyl) acetamide] | no activity | no activity | no activity | no activity | > 350 | no activity |  |  |  |  |  |
| COc1cc(NC(=O)CSc2nc3c(OC)cccc3c(=O)n2-c2ccc(S(N)(=O)=O)cc2)cc(OC)c1OC [Compound 15, 2-((8-Methoxy-4-oxo-3-(4-sulphamoylphenyl)-3,4-dihydroquinazolin-2-yl)thio)-N-(3,4,5-trimethoxyphenyl) acetamide] |  |  |  |  | 290 to 292 |  | 75 ± 1.74 | 74 ± 2.16 | 79 ± 1.09 | 75.2 ± 0.96 | 47.5 ± 4.08 |
| CCOc1ccc(NC(=O)CSc2nc3c(OC)cccc3c(=O)n2-c2ccc(S(N)(=O)=O)cc2)cc1 [Compound 13, N-(p-Ethoxyphenyl)-2-((8-methoxy-4-oxo-3-(4-sulphamoylphenyl)-3,4-dihydroquin-azolin-2-yl)thio) acetamide] |  |  |  |  | 300 to 302 |  | 61.9 ± 1.35 | 46.7 ± 1.23 | 39 ± 1.4 | 38 ± 0.47 | 54.4 ± 2.07 |
| O=c1[nH]cc(F)c(=O)[nH]1 [5-Flurouracil, 5-Fluorouracil, reference compound] |  |  |  |  |  |  | 98.86 ± 0.01 | 95.63 ± 0.3 | 167 ± 0.2 | 132.4 ± 0.6 | 90.71 ± 0.5 |
| COc1cccc2c(=O)n(-c3ccc(S(N)(=O)=O)cc3)c(SCC(=O)Nc3cccc(C)c3)nc12 [Compound 7, 2-((8-Methoxy-4-oxo-3-(4-sulphamoylphenyl)-3,4-dihydroquinazolin-2-yl)thio)-N-(m-tolyl) acetamide] |  |  |  |  | > 350 |  | 58.6 ± 1.52 | 27.7 ± 1.85 | 83.2 ± 0.9 | 39.7 ± 2.27 | 30.1 ± 1.3 |
| CCc1ccc(NC(=O)CSc2nc3c(OC)cccc3c(=O)n2-c2ccc(S(N)(=O)=O)cc2)cc1 [Compound 11, N-(4-Ethylphenyl)-2-((8-methoxy-4-oxo-3-(4-sulphamoylphenyl)-3,4-dihydroquinazolin-2-yl)thio) acetamide] |  |  |  |  | 280 to 282 |  | 50.5 ± 1.73 | 29.4 ± 0.33 | 32.9 ± 1.4 | 42.7 ± 0.84 |  |
| COc1cc(NC(=O)CSc2nc3c(OC)cccc3c(=O)n2-c2ccc(S(N)(=O)=O)cc2)cc(OC)c1 [Compound 14, N-(3,5-Dimethoxyphenyl)-2-((8-methoxy-4-oxo-3-(4-sulphamoylphenyl)-3,4-dihydroq-uinazolin-2-yl)thio) acetamide] |  |  |  |  | 240 to 242 |  | 68.34 ± 0.42 | 34.6 ± 1.15 | 62.6 ± 2.34 | 72.5 ± 1.06 | 38.3 ± 0.65 |
| CCc1ccccc1NC(=O)CSc1nc2c(OC)cccc2c(=O)n1-c1ccc(S(N)(=O)=O)cc1 [Compound 9, N-(2-Ethylphenyl)-2-((8-methoxy-4-oxo-3-(4-sulphamoylphenyl)-3,4-dihydroquinazolin-2-yl)thio) acetamide] | no activity | no activity | no activity | no activity | 288 to 290 | no activity |  |  |  |  |  |
